We go through 20 molecules from PubChem BioAssay AID276 (DTP/NCI, 2004).

SMILES strings stand for the structures. “And” between values parts separate entries of the source, which are not always exact repeats. Equal entries are not always repeated. Inconclusive results and toxic doses are left out.

The test system of this experiment is B6C3F1 mice, Lewis lung carcinoma iv, survival T/C. In words: NCI In Vivo Anticancer Drug Screen. Data for tumor model Lewis Lung Carcinoma (intravenous) in B6C3F1 mice. The note with it: endpoint: median survival time, schedule: Q01DX009 (ip), higher = longer survival. Here is the method: The antitumor activity of compounds was measured in mice bearing transplantable tumors. Survival or tumor size were measured and the results are expressed as the measurement made in the treated group (T) divided by the measurement made in the vehicle treated control group (C). The tumor model used in this assay is Lewis Lung Carcinoma (intravenous) in B6C3F1 mice

Setting [1] is: dose: 25.0 mg/kg/injection, vehicle: saline with Tween-80.
[2] abbreviates: dose: 50.0 mg/kg/injection, vehicle: saline with Tween-80.
Where [3] appears, read: dose: 100.0 mg/kg/injection, vehicle: saline with Tween-80.
The mark [4] stands for this setting: dose: 12.5 mg/kg/injection, vehicle: saline.
[5] abbreviates: dose: 25.0 mg/kg/injection, vehicle: saline.
Setting [6] is: dose: 50.0 mg/kg/injection, vehicle: saline.
[7] abbreviates: dose: 100.0 mg/kg/injection, vehicle: saline.
The mark [8] stands for this setting: dose: 6.25 mg/kg/injection, vehicle: water.
The mark [9] stands for this setting: dose: 12.5 mg/kg/injection, vehicle: water.
Where [10] appears, read: dose: 25.0 mg/kg/injection, vehicle: water.
Where [11] appears, read: dose: 200.0 mg/kg/injection, vehicle: saline with Tween-80.
Where [12] appears, read: dose: 400.0 mg/kg/injection, vehicle: saline with Tween-80.
Where [13] appears, read: dose: 200.0 mg/kg/injection, vehicle: saline.
Setting [14] is: dose: 12.5 mg/kg/injection, vehicle: saline with Tween-80.

With `CN(C)C1C(=O)C(C(=O)NP(=O)(NCCCO)N(CCCl)CCCl)=C(O)C2(O)C(=O)C3=C(O)c4c(O)cccc4C(C)(O)C3CC12` (centres undefined), the T/C reads like this: under setting [1], 104 % of control; under setting [2], 119 % of control; under setting [3], 93 % of control.
`CS(=O)(=O)CS(=O)(=O)OCCCl`: the T/C reads like this: under setting [4], 107 % of control; under setting [5], 120 % of control; under setting [6], 284 % of control; under setting [7], 239 % of control.
Take `COc1ccc(OC)c(Cc2cnc3nc(N)nc(N)c3c2C)c1`: the T/C by setting is: under setting [8], 104 % of control; under setting [9], 112 % of control; under setting [10], 100 % of control; (dose: 50.0 mg/kg/injection, vehicle: water) 92 % of control.
On to `CN(C=O)C(C(=O)Nc1cccc2c(OC(=O)C(N(C)C=O)(N(C)C=O)N(C)C=O)c(N=Nc3ccc(S(=O)(=O)Nc4nccs4)cc3)cc(N=Nc3ccc(S(=O)(=O)Nc4nccs4)cc3)c12)(N(C)C=O)N(C)C=O` (tested in a mixture with another compound), for which the T/C was 103 % of control under setting [1]; 98 % of control under setting [2]; 99 % of control and 104 % of control under setting [3]; 94 % of control and 98 % of control under setting [11]; 103 % of control and 110 % of control under setting [12]; 107 % of control (dose: 800.0 mg/kg/injection, vehicle: saline with Tween-80).
In the case of `CN(C)c1ncnc2c1ncn2C1OC(CO)C(N)C1O` (centres undefined), the T/C under setting [5] was 112 % of control.
Take `CCCC(=O)OCc1cc(=O)n(C)c2c3c4c(cc12)c(C)cc(=O)n4CO3`: the T/C is 91 % of control (dose: 3.12 mg/kg/injection, vehicle: Klucel (hydroxypropylcellulose) (HPC)); 97 % of control (dose: 6.25 mg/kg/injection, vehicle: Klucel (hydroxypropylcellulose) (HPC)); 92 % of control (dose: 12.5 mg/kg/injection, vehicle: Klucel (hydroxypropylcellulose) (HPC)); 118 % of control (dose: 50.0 mg/kg/injection, vehicle: Klucel (hydroxypropylcellulose) (HPC)).
Take `CCCC(=O)O`: the T/C is 123 % of control under setting [4]; 109 % of control under setting [5]; 114 % of control under setting [6]; 106 % of control under setting [7]; 98 % of control under setting [13].
As for `C[CH2][Pb]([CH2]C)([CH2]C)[O]C(=O)COc1ccccc1`, the T/C (dose: 0.08 mg/kg/injection, vehicle: saline with Tween-80) was 107 % of control; the T/C (dose: 0.15 mg/kg/injection, vehicle: saline with Tween-80) was 99 % of control; the T/C (dose: 0.3 mg/kg/injection, vehicle: saline with Tween-80) was 99 % of control; the T/C (dose: 0.6 mg/kg/injection, vehicle: saline with Tween-80) was 109 % of control; the T/C (dose: 1.2 mg/kg/injection, vehicle: saline with Tween-80) is 108 % of control.
Take `CC(C)(C)N1CC1CNC(=O)C(=O)NCC1CN1C(C)(C)C` (centres undefined): the T/C is, setting by setting: (dose: 0.39 mg/kg/injection, vehicle: saline with Tween-80) 99 % of control; (dose: 0.78 mg/kg/injection, vehicle: saline with Tween-80) 102 % of control and 108 % of control; (dose: 1.56 mg/kg/injection, vehicle: saline with Tween-80) 105 % of control and 106 % of control; (dose: 3.12 mg/kg/injection, vehicle: saline with Tween-80) 101 % of control and 122 % of control; (dose: 6.25 mg/kg/injection, vehicle: saline with Tween-80) 104 % of control and 111 % of control; under setting [14], 108 % of control and 123 % of control.
Take `Nc1n[nH]c(N)n1`: the T/C is, setting by setting: under setting [7], 109 % of control; under setting [13], 109 % of control; (dose: 400.0 mg/kg/injection, vehicle: saline) 106 % of control; (dose: 800.0 mg/kg/injection, vehicle: saline) 115 % of control.
Turning to `COc1ccc(-c2csc(=[N+]3CCCCC3)s2)cc1`, the T/C is, setting by setting: (dose: 1.56 mg/kg/injection, vehicle: water) 108 % of control; (dose: 3.12 mg/kg/injection, vehicle: water) 104 % of control; under setting [8], 104 % of control; under setting [9], 94 % of control; under setting [10], 95 % of control.
Take `CO[C@@]12[C@@H]3N[C@@H]3CN1C1=C(C(=O)C(NCC3CCCO3)=C(C)C1=O)[C@@H]2COC(N)=O` (some centres undefined): the T/C is 104 % of control (dose: 1.5 mg/kg/injection, vehicle: distilled water + Tween-80); 104 % of control (dose: 3.0 mg/kg/injection, vehicle: distilled water + Tween-80); 116 % of control (dose: 6.0 mg/kg/injection, vehicle: distilled water + Tween-80).
For `OC(C1CO1)C(O)C1CO1` (centres undefined), the T/C (dose: 0.25 mg/kg/injection, vehicle: saline) was 101 % of control; the T/C (dose: 0.5 mg/kg/injection, vehicle: saline) was 100 % of control; the T/C (dose: 1.0 mg/kg/injection, vehicle: saline) was 102 % of control; the T/C (dose: 2.0 mg/kg/injection, vehicle: saline) was 109 % of control.
Take `CCCCNC(C)C1(O)Cc2c(O)c3c(c(O)c2C(OC2CC(N)C(O)C(C)O2)C1)C(=O)c1c(OC)cccc1C3=O` (centres undefined): the T/C runs as follows: (dose: 10.0 mg/kg/injection, vehicle: water) 108 % of control; (dose: 20.0 mg/kg/injection, vehicle: water) 101 % of control; (dose: 40.0 mg/kg/injection, vehicle: water) 107 % of control; (dose: 80.0 mg/kg/injection, vehicle: water) 113 % of control.
For `CCN(CC)c1ccc2[nH]c3c(C(N)=O)cc(=O)c(=O)c=3oc2c1`, the T/C reads like this: under setting [14], 90 % of control; under setting [1], 107 % of control; under setting [2], 98 % of control; under setting [3], 93 % of control.
For `c1ccc2sc(SSN3CC4CCC(CC4)C3)nc2c1`, the T/C was 100 % of control under setting [14]; 93 % of control under setting [1]; 90 % of control under setting [2]; 91 % of control under setting [3]; 106 % of control under setting [11].
On to `CCCCCCCC(=O)O[C@H]1[C@H]2[C@@H](CC1(C)C)C(=O)[C@]13O[C@H]1C(=O)[C@]1(CO1)[C@]23C`, for which the T/C is, setting by setting: (dose: 1.25 mg/kg/injection, vehicle: saline with Tween-80) 100 % of control; (dose: 2.5 mg/kg/injection, vehicle: saline with Tween-80) 97 % of control; (dose: 5.0 mg/kg/injection, vehicle: saline with Tween-80) 102 % of control; (dose: 10.0 mg/kg/injection, vehicle: saline with Tween-80) 88 % of control.
Consider `O=C(O)C1Cc2nc[nH]c2CN1CO` (centres undefined), for which the T/C by setting is: under setting [14], 109 % of control; under setting [1], 104 % of control; under setting [2], 99 % of control; under setting [3], 114 % of control; under setting [11], 103 % of control; under setting [12], 98 % of control.
For the molecule `O=C1NC(=O)NC(C(=O)O)N1`, the T/C (dose: 50.0 mg/kg/injection, vehicle: DMSO) is 101 % of control; the T/C (dose: 100.0 mg/kg/injection, vehicle: DMSO) was 105 % of control; the T/C (dose: 200.0 mg/kg/injection, vehicle: DMSO) is 98 % of control; the T/C (dose: 400.0 mg/kg/injection, vehicle: DMSO) was 110 % of control.
In the case of `COc1c(C)c2c(c(O)c1C/C=C(\C)CCC(=O)O)C(=O)OC2`, the T/C was 91 % of control under setting [2], 91 % of control under setting [3] and 98 % of control under setting [11].
